# Source: patent US7183300B2, “Inhibitors of HIV-1 capsid formation: substituted aryl aminomethyl thiazole ureas and analogues thereof” (priority 2004, dated 2007)
# What was measured:
# [1] = molecular target: T1, HIV-1 capsid protein (Human immunodeficiency virus type 1 group M subtype B, UniProt P12493); assay: biochemical; format: binding
# T1 construct: aqueous solutions containing recombinant, ^15N-labeled HIV-1 capsid protein
# Procedure: Capsid protein ligands are also evaluated by NMR to determine their equilibrium dissociation constant from the capsid binding site.
# Concentrated DMSO-d6 solutions of test compounds are prepared for NMR analysis. 2D ^1H-^15N HSQC NMR spectra are obtained for aqueous solutions containing recombinant, ^15N-labeled HIV-1 capsid protein and 10 microliters of added test compound. Data is obtained using a 600 MHz NMR instrument equipped with a cryoprobe. […] Binding is indicated by perturbation relative to capsid protein alone (^1HN δδ>0.1 ppm; ^15N δδ>0.5 ppm) of the chemical shifts of the following residues: Glu29, Lys30, Ala31, Phe32, Ser33, Glu35, Val36, Val59, Gly60, Gly61, His62, Gln63, Ala65, Met144 and Tyr145, all located at or near the apex of a helical bundle (helices 1, 2, 3, 4 and 7).
# Equilibrium dissociation constants are calculated from 2D NMR data of selected capsid ligands. […] The chemical shift changes of perturbed by test compound binding are fit to 1:1 binding isotherms.
# [2] = molecular target: CA (Human immunodeficiency virus type 1 group M subtype B, UniProt P12493); assay: mass action calculation of CAP-1 bound to CA/Gag in immature virions; parameters: species or system HIV-1
# Procedure: This is likely due to the high local concentration of Gag molecules in assembled virions (14 mM), which favors binding by ligands with even modest affinities, e.g., N-(3-chloro-4-methylphenyl)-N′-[2-[([5-[(dimethylamino)-methyl]-2-furyl]-methyl)-sulfanyl]ethyl]urea (CAP-1).
# Thus conservatively assuming that cytosolic drug concentrations in the budding virus and cells are equal (100 μM), the percentage of viral CAP-1 molecules bound to CA can be estimated by standard mass action calculations which affords a value for the concentration of bound CAP-1 ([CA:CAP-1]) of 94 μM.
compound,measurement,setting,value
"Cc1ccc(NC(=O)NCCSCc2ccc(CN(C)C)o2)cc1Cl [CAP-1, N-(3-chloro-4-methylphenyl)-N′-[2-[([5-[(dimethylamino)-methyl]-2-furyl]-methyl)-sulfanyl]ethyl]urea]",Kd,[1],820 ± 180 µM
same,binding to the HIV-1 capsid protein (HSQC chemical shift perturbation),[1]; recombinant 15N-labeled HIV-1 capsid protein,site-specific binding
same,CAP-1 molecules in immature virions bound to Gag,[2]; 100 μM dose,94%
same,concentration of bound CAP-1 ([CA:CAP-1]),"[2]; assuming drug concentration 100 μM, Gag in assembled virions 14 mM",94 µM
